{"source": "patent US8551721B2", "about": "“Bioluminescent detection of cyanohydroxy benzothiazole compounds” (Promega Corporation, priority 2008, dated 2013)", "key": {"[1]": {"target": "T1, UGT 1A1 (Homo sapiens, UniProt P22309)", "T1 construct": "purchased BD Gentest; host or cells: insect cells (microsomes)", "T1 sequence (P22309 26-533)": "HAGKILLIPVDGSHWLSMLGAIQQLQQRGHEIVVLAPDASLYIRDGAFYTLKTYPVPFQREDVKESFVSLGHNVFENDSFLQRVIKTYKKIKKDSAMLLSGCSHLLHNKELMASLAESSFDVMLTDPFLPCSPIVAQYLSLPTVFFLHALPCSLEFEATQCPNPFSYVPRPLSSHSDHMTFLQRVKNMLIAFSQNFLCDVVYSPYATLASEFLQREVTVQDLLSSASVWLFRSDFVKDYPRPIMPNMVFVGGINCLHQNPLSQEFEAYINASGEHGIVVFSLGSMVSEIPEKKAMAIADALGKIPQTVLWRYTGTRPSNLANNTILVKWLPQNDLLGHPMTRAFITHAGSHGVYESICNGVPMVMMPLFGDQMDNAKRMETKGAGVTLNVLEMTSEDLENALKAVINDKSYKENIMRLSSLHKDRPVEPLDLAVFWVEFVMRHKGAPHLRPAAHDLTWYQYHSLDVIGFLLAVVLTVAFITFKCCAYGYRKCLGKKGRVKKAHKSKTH", "test": "Inhibition of recombinant UGT 1A1 supersomes by diclofenac, probe compound 3138", "format": "biochemical", "conditions": "0.1 mg/mL Supersomes, 20 μM compound 3138, 90 minutes at 37° C.", "method": "The invention includes a method of determining activity of the uridine 5′-diphospho-glucuronosyltransferase (UDP-glucuronosyltransferase, or UGT) family enzymes in vitro. […] Following the UGT enzyme reaction, an equal volume of P450-Glo Luciferin Detection Reagent (Promega) containing 15-30 mM D-cysteine-HCl.H2O (Sigma) was added and the plate was mixed and incubated at room temperature, typically for 20-30 minutes. P450-Glo Luciferin Detection Reagent can be prepared by dissolving a vial of Promega Luciferin Detection Reagent (Promega Part #V859B) with a vial of Promega P450-Glo Buffer (Promega Part #V865B).\n(§1) During this incubation, the cysteine reacts with the cyanobenzathiozole substrate to yield a D-luciferin derivative. […] Therefore, activity of the UGT enzyme can be measured by analyzing the difference (lower or no output) in relative light units (RLU) of a sample in which glucuronidation occurs compared to a sample that was run under the same conditions with no added UDPGA cofactor."}, "[2]": {"system": "UGT activity in human liver microsomes (HLM)", "test": "Inhibition of UGT activity in human liver microsomes by diclofenac (titration), probe compound 3138", "format": "biochemical", "conditions": "0.1 mg/mL HLM, 50 μM compound 3138, 15 minutes at 37° C.; read-out: EC50, inhibition of HLM utilization of compound 3138", "method": "The invention includes a method of determining activity of the uridine 5′-diphospho-glucuronosyltransferase (UDP-glucuronosyltransferase, or UGT) family enzymes in vitro. Briefly, UGT enzymes from overexpressed insect microsomes (Supersomes™, BD Gentest™) or animal tissue microsomes (Xenotech, BD Gentest™) were incubated with a cyanobenzothiazole substrate of the invention and the cofactor UDP-glucuronic acid (UDPGA) at 37° C. in buffer at physiological pH containing MgCl2 and alamethicin (typically, 50 mM TES, pH 7.5, 8 mM MgCl2, 4 mM UDPGA (Sigma) and 25 μg/mL alamethicin (Sigma)). […]\nas §1\nAll reactions contained 50 mM TES, pH 7.5, 8 mM MgCl2, 25 μg/mL alamethicin, 0.1 mg/mL HLM, and 50 μM compound 3138, plus or minus 4 mM UDPGA. […] After 20 minutes at room temperature, RLU were read on a luminometer."}, "[3]": {"system": "UGT isozymes", "conditions": "cited from earlier work"}}, "data": [{"smiles": "O=C(O)Cc1ccccc1Nc1c(Cl)cccc1Cl", "note": "[Diclofenac]", "values": [{"measurement": "IC50", "setting": "[1]", "result": 232, "unit": "µM"}, {"measurement": "EC50", "setting": "[2]", "result": 60, "unit": "µM"}, {"measurement": "Isozymes Modulated", "setting": "[3]; isozymes currently reported in the literature to be modulated by the compound", "result": "Inhibits most isozymes"}, {"measurement": "inhibition of UGT isozymes as reported in the literature", "setting": "[3]; literature report", "result": "reported to inhibit UGT 1A1, 1A3, 1A6, 1A7, 1A8, 1A9, 1A10, 2B7, 2B15, and 2B17"}]}]}
